Measurements published in US20250179031A1, “PROTEASOME ENHANCERS AND USES THEREOF” (Board of Trustees of Michigan State University, priority 2022, published 2025).

Key:
Format in all cases: biochemical
human 20S proteasome = system: T1, human 20S proteasome; assay: Fluorogenic peptide degradation 20S proteasome activity assay, combination of CT-L, T-L and Casp-L substrates; conditions: for Fold increase over vehicle (30 μM), enhancement of 20S activity: 30 μM compound, mixture of the three substrates, 15 min pre-treatment at 37° C., 1 h read
T1 construct: purchased Boston Biochem, Inc. (Cambridge, MA)
Protocol: (§1) Activity assays were carried out in a 100 μL reaction volume. Different concentrations (40-1.25 μM) of test compounds (1 μL) were added to a black flat/clear bottom 96-well plate containing 2 nM of human constitutive 20S proteasome ([…]), in 50 mM Tris-HCl at pH 7.8, 100 mM NaCl and allowed to incubate for 15 min at 37° C. Fluorogenic substrates (5 μL) were then added and the enzymatic activity measured at 37° C. on a SpectraMax M5e spectrometer by measuring the change in fluorescence unit per minute for 1 hour at 380-460 nm. The fluorescence units for the vehicle control were set at a 100%, and the ratio of drug-treated sample set to that of vehicle control was used to calculate the fold change in enzymatic activity. The fluorogenic substrates used were one of the following: Suc-LLVY-AMC (CT-L activity, 20 μM), Z-LLE-AMC (Casp-L activity, 20 μM), Boc-LRR-AMC (Trp-L activity, 40 μM) or a combination of the three substrates each at 6.67 μM. Results were analysed and plotted using GraphPad Prism 7.
(§2) Screening of this library of dihydroquinazolines was performed in two stages. In the first stage, each compound was screened at three concentrations (3, 10 and 30 μM) to select lead agents. Secondly, lead agents were further analyzed using full concentration responses (6-point titration ranging from 1.25 μM-40 μM) for each of the three proteolytic activities of the 20S proteasome and a combination thereof. The proteolytic activity of the 20S proteasome can be monitored in vitro by measuring the cleavage of fluorogenic peptide substrates for the different catalytic sites as an increase in 7-amino-4-methycoumarin (AMC) fluorescence overtime. A combination of chymotrypsin-like (CT-L, Suc-LLVY-AMC), tryptic-like (T-L, Boc-LRR-AMC) and caspase-like (Casp-L, Z-LLE-AMC) peptide substrates were used in equal amounts to screen compounds for overall 20S activity.
Pure human 20S proteasome was pre-treated with 3, 10 or 30 μM of one of the analogues or DMSO (vehicle control) for 15 min at 37° C. To each sample was then added a mixture of the three substrates (13.3 μM each). The release of AMC was monitored as fluorescence overtime for 1 h and the resulting 20S activity changes were determined by comparing to the untreated 20S and calculating the fold-increase in activity for each analogue at a given concentration (Table 1, 30 μM).
(§3) After analyzing the results in Table 1, three of the most promising analogues were selected for further studies into their 20S activity. Compounds 10, 2 and 18 were selected to be carried forward based on their fold increase and the highest Max-Fold activities. […] These compounds were then tested to obtain a full concentration—response (FIG. 1) of their activities towards the 20S proteasome using each of the three substrates for the three catalytic sites individually and the combination of the three substrates. This was done to ensure that each of the selected compounds activate the 20S proteasome at all three catalytic sites, which is critical for effective IDP degradation, as these proteins are likely to contain multiple cleavage sites for each.
(§4) Using the data in FIG. 1, the concentration at which 20S activity was doubled (AC200) was calculated for each compound using each substrate and the combination of the three substrates (Table 2).

[1] = system: T2, human 20S proteasome (α-synuclein substrate); assay: In vitro purified α-synuclein degradation assay (silver stain); conditions: pure human α-synuclein, 4 h at 37° C., silver stain quantified
T2 construct: purchased Boston Biochem, Inc. (Cambridge, MA)
Protocol: Representative silver stain of these alpha-synuclein digestions and quantification of three trials. 20S proteasome subunits were used as a loading control in the quantification (right). […] Error bars denote standard deviation. Ordinary one-way ANOVA statistical analysis was used to determine statistical significance (ns=not significant, *p<0.05, **p<0.01, […], and ****p<0.00001).
In vitro purified α-synuclein degradation assay. Digestion of α-synuclein was carried out in a 50 μL reaction volume made of 50 mM Tris and 100 mM NaCl at pH 7.8; 0.5 μM purified α-synuclein and 6.7 nM purified human 20S proteasome. Briefly, 20S proteasome was diluted to 7.58 nM in the reaction buffer. Test compounds or vehicle (1 μL of 50× stock or DMSO) were added to 44 μL of 7.58 nM 20S and incubated at 37° C. for 20 min. 5 μL of 5 μM α-synuclein substrate was then added to the reaction mixture and incubated at 37° C. for 4 hours. The reactions were quenched with concentrated sodium dodecyl sulfate (SDS) loading buffer. After boiling for 10 min, samples were resolved on a 4-20% Tris-glycine SDS-PAGE gel. The gels were then stained using a Pierce Silver Stain Kit (Thermo Scientific, Rockford IL) and the provided procedure. Silver stained gels were then quantified using ImageJ. […]

[2] = system: T3, human 20S proteasome, chymotrypsin-like (CT-L) site; assay: Fluorogenic peptide degradation 20S proteasome activity assay, Suc-LLVY-AMC (CT-L activity); conditions: Suc-LLVY-AMC substrate
T3 construct: purchased Boston Biochem, Inc. (Cambridge, MA)
Protocol: as §1, §2, §3, §4

[3] = system: T4, human 20S proteasome, caspase-like (Casp-L) site; assay: Fluorogenic peptide degradation 20S proteasome activity assay, Z-LLE-AMC (Casp-L activity); conditions: Z-LLE-AMC substrate
T4 construct: purchased Boston Biochem, Inc. (Cambridge, MA)
Protocol: as §1, §2, §3, §4

[4] = system: T5, human 20S proteasome, tryptic-like (T-L) site; assay: Fluorogenic peptide degradation 20S proteasome activity assay, Boc-LRR-AMC (T-L activity); conditions: Boc-LRR-AMC substrate
T5 construct: purchased Boston Biochem, Inc. (Cambridge, MA)
Protocol: as §1, §2, §3, §4

[5] = combination of the three substrates
[6] = combination of the three substrates, 1.25-40 μM titration

`COc1ccc2c(c1)N=C(c1ccccc1)N(c1ccccn1)C2c1ccccc1` (stereo not drawn) [Compound 11, 7-Methoxy-2,4-diphenyl-3-(2-pyridyl)-3,4-dihydroquinazoline] was tested, and the “Fold increase over vehicle (30 μM), enhancement of 20S activity” value (“Fold increase over vehicle (30 μM)” for short) (human 20S proteasome) was 6.9 fold.

In the case of `COc1ccc2c(c1)N=C(C)N(Cc1ccccc1)C2c1ccccc1` (stereo not drawn) [Compound 9], the “Fold increase over vehicle (30 μM)” value (human 20S proteasome) is reported as 1.8 fold.

In the case of `CC(C)C[C@H](NC(=O)[C@H](Cc1ccccc1)NC(=O)c1cnccn1)B(O)O` [bortezomib, reference compound], the “20S-mediated degradation of α-synuclein (in words)” value [1] is reported as “prevented α-synuclein degradation”.

For `COc1ccc2c(c1)N=C(c1ccccc1)N(CC1CCCCC1)C2c1ccccc1` (stereo not drawn) [Compound 21, 3-(Cyclohexylmethyl)-7-methoxy-2,4-diphenyl-3,4-dihydroquinazoline], the “Fold increase over vehicle (30 μM)” value (human 20S proteasome) was 8.2 fold.

In the case of `COc1ccc2c(c1)N=C(C1CC1)N(Cc1ccccc1)C2c1ccccc1` (stereo not drawn) [Compound 6], the “Fold increase over vehicle (30 μM)” value (human 20S proteasome) is reported as 2.7 fold.

For `COc1ccc2c(c1)N=C(c1ccccc1)N(c1cccnc1)C2c1ccccc1` (stereo not drawn) [Compound 12], the “Fold increase over vehicle (30 μM)” value (human 20S proteasome) was 5.9 fold.

`COc1ccc2c(c1)N=C(c1ccccc1)N(c1ccccc1)C2c1ccccc1` (stereo not drawn) [Compound 10] was tested, and the “Fold increase over vehicle (30 μM)” value (human 20S proteasome) was 9.5 fold, the “concentration at which 20S activity was doubled in the combination (in words)” value (human 20S proteasome; [5]) was “low μM concentrations” and the “Max Fold, Combo” value (human 20S proteasome; [6]) was 11.1 fold. For the same molecule, the “AC200, CT-L” value [2] was 8.1 µM, the “Max Fold, CT-L” value [2] was 6.7 fold and the “AC200, Casp-L” value [3] was 5.8 µM. For the same molecule, the “Max Fold, Casp-L” value [3] was 15.3 fold, the “AC200, T-L” value [4] was 2.5 µM and the “Max Fold, T-L” value [4] was 15.0 fold.

`COc1ccc2c(c1)N=C(c1ccccc1)N(C1CCCCC1)C2c1ccccc1` (stereo not drawn) [Compound 16, 3-Cyclohexyl-7-methoxy-2,4-diphenyl-3,4-dihydroquinazoline] was tested, and the “Fold increase over vehicle (30 μM)” value (human 20S proteasome) was 6.7 fold.

In the case of `CCCCCCN1C(c2ccccc2)=Nc2cc(OC)ccc2C1c1ccccc1` (stereo not drawn) [Compound 24], the “Fold increase over vehicle (30 μM)” value (human 20S proteasome) is reported as 1.6 fold.

For `COc1ccc2c(c1)N=C(c1ccccc1)N(CC1CCOCC1)C2c1ccccc1` (stereo not drawn) [Compound 20, 7-Methoxy-2,4-diphenyl-3-[(tetrahydro-2H-pyran-4-yl)methyl]-3,4-dihydroquinazoline], the “Fold increase over vehicle (30 μM)” value (human 20S proteasome) was 1.6 fold.

`Cc1ccc2c(c1)N=C(c1ccccc1)N(Cc1ccccc1)C2c1ccccc1` (stereo not drawn) [Compound 3, 3-Benzyl-7-methyl-2,4-diphenyl-3,4-dihydroquinazoline] was tested, and the “Fold increase over vehicle (30 μM)” value (human 20S proteasome) was 8.1 fold.

With `COc1ccc2c(c1)N=C(c1ccccc1)N(C1CCN(Cc3ccccc3)CC1)C2c1ccccc1` (stereo not drawn) [Compound 18] the “Fold increase over vehicle (30 μM)” value (human 20S proteasome) was 7 fold, the “concentration at which 20S activity was doubled in the combination (in words)” value (human 20S proteasome; [5]) was “low μM concentrations” and the “AC200 (concentration at which 20S activity was doubled), Combo” value (human 20S proteasome; [6]) was 1.3 µM. The “Max Fold, Combo” value (human 20S proteasome; [6]) was 5.5 fold, the “AC200, CT-L” value [2] was 10.5 µM and the “Max Fold, CT-L” value [2] was 3.8 fold. The “AC200, Casp-L” value [3] was 2.8 µM, the “Max Fold, Casp-L” value [3] was 10.6 fold and the “AC200, T-L” value [4] was 1.7 µM. For the same molecule, the “Max Fold, T-L” value [4] was 8.7 fold and the “20S-mediated degradation of α-synuclein (in words)” value [1] was “effectively enhanced the rate of degradation of α-synuclein by the 20S in vitro in a concentration dependent manner”.
